The target in one assay is T1, HDAC1 (Homo sapiens, UniProt Q13547).
T1 construct: purchased BPS Bioscience
Briefly: In vitro HDAC1 enzymatic activity inhibition (Lys-Ac-AMC substrate). It is filed as biochemical. Here is the method:
Determining the inhibition capability to HDAC activity through the substrate method of fluorophore 4-amino-7-coumarin coupled Ac-peptide (Lys-Ac-AMC). HDAC1 protein is purchased from BPS Bioscience Company; the reaction buffer system is a modified tris(hydroxymethyl)aminomethane (TRIS) buffer (pH7.0). All small molecule compounds are prepared and dissolved by 100% DMSO (dimethyl sulfoxide). HDAC is prepared into the buffer as per certain concentration to be served as the enzyme solution; trypsin and the fluorophore 4-amino-7-coumarin coupled Ac-peptide substrate are prepared into the buffer as per certain concentration to be served as the substrate solution. Adding the compound into the reaction wells of the 384 well plate at the designed concentration, then adding 15 μL HDAC solution into the reaction wells (adding 15 μL blank buffer into the control well 0) for incubation under ambient temperature for 15 min; then adding 10 μL substrate solution to start reaction; during the reaction, the final concentration of HDAC1 protein is 6 nM, trypsin 0.05 μM and Ac-peptide 8 μM.
(§1) Calculating the value of IC50 as per the formula: Y=background data+(top data−background data)/(1+10^((Log IC50−X)*rate of curve))
Where, Y refers to the inhibition ratio (%) and X refers to the compound concentration. […]
Analyzing the result data with the software GraphPad Prism and calculating the value of IC50 as per the formula: Y=background data+(top data−background data)/(1+10^((Log IC50−X)*rate of curve)). Where, Y refers to the inhibition ratio (%) and X refers to the compound concentration.

The target of the next assay is T2, PI3Kα (Homo sapiens, UniProt P42336).
T2 construct: purchased Invitrogen PV4788
T2 sequence (P42336 whole entry, species assumed): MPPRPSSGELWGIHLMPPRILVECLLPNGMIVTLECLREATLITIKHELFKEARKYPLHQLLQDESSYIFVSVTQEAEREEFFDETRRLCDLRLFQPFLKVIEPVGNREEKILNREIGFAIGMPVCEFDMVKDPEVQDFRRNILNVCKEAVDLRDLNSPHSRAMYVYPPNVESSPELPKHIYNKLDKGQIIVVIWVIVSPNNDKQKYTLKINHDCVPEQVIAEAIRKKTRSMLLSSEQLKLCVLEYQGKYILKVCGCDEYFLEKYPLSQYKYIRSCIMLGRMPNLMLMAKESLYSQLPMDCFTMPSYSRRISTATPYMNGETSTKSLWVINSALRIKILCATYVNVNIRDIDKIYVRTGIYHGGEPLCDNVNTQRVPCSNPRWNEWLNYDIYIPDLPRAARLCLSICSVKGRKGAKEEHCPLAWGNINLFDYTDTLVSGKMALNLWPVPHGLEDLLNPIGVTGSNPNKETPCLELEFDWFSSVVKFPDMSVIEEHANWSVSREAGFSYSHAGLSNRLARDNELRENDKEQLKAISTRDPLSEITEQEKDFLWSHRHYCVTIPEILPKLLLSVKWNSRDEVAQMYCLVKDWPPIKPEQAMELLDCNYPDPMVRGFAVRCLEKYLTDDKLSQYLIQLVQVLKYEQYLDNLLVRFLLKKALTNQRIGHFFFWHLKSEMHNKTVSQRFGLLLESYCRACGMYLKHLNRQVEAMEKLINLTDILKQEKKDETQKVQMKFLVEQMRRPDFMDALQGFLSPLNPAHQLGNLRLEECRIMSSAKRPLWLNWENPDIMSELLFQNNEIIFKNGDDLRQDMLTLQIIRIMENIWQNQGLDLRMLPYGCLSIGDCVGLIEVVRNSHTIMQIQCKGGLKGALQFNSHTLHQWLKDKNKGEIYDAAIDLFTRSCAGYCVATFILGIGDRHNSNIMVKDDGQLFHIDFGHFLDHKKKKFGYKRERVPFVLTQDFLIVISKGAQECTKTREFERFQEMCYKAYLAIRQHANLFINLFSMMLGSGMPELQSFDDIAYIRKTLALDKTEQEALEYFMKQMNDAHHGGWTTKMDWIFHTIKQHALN
T2 sequence (P27986 whole entry partner, species assumed): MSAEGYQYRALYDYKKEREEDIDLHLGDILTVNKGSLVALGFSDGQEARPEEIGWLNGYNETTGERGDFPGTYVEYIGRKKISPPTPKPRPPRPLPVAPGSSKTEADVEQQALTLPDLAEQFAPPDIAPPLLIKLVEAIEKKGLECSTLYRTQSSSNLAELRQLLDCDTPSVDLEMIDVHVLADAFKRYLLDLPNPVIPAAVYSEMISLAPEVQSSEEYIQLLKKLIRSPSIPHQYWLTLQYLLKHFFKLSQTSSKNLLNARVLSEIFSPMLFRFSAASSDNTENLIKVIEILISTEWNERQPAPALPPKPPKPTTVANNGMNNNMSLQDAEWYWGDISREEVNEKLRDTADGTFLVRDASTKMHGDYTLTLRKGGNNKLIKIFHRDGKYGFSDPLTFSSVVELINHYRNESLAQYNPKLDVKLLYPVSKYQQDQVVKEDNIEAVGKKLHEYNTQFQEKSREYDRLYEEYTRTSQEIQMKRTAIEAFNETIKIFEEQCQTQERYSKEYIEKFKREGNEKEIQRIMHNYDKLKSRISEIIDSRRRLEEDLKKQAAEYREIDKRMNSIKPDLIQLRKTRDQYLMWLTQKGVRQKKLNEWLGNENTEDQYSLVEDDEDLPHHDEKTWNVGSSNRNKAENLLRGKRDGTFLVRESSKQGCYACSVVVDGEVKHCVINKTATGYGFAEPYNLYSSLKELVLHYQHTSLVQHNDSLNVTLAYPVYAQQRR
Briefly: PI3Kα activity inhibition (Kinase-Glo). It is filed as biochemical. To be noted: Table 1, graded; read-out: PI3Kα IC50. Here is the method:
Detecting the inhibition capability of the compound to PI3Kα and PI3Kδ activities with Kinase-Glo (purchased from Promege Company; Catalog No.: V3771). […] The reaction system also comprises substrates as PIP2 (4, 5-diphosphoinositide, purchased from Life Technologies Company) and ATP (triphosadenine, purchased from Sigma Company). The reaction buffer system comprises 50 mM HEPES (4-hydroxyethylpiperazine ethane sulfonic acid), 3 mM MgCl2, 1 mM EGTA (ethylene glycol bis(2-amino ethylether)quadrol), 100 mM NaCl, 0.03% CHAPS (3-[3-(cholamidopropyl)dimethylamino]-1-propanesulfonic acid), 2 mM DTT (dithiothreitol). The pH value of the reaction buffer is 7.5. […] Mixing the system evenly for incubation under ambient temperature (for 1 h in PI3Kα test and for 2 h in PI3Kδ test). After incubation, adding 10 μL Kinase-Glo which has been preheated to ambient temperature into each reaction well to terminate the reaction; shaking it in dark place for 15 min after it is mixed evenly, then measuring the fluorescence intensity with a microplate reader and analyzing the result data with the software GraphPad Prism.
as §1
Where, Y refers to the inhibition ratio (%) and X refers to the compound concentration.
A general note: In Kinase-Glo more light means more ATP remaining.

The subject of assay [1] is MV4-11 cells (acute myeloid leukemia). Briefly: Cell proliferation inhibition, MV4-11 (cck-8). It is filed as cell-based. To be noted: Homo sapiens. The protocol: (§2) The tumor cell lines are purchased from American Type Culture Collection (ATCC) and cultivated to the status of logarithmic growth as per the cultural method recommended by ATCC. The cells in logarithmic phase are spread on a 96 well plate as per 2000-3000/well; as for anchorage-dependent cells, the compound should be added in the test wells at certain concentration for incubation for 96 h after cell adherence. Determining cell proliferation activities with method MTT for tumor cells representing solid tumor model and with method cck-8 for tumor cells representing hematologic tumor model, and analyzing the result data with the software GraphPad Prism.
(§3) Calculating the value of IC50 as per the formula: Y=background data+(top data−background data)/(1+10^((Log IC50−X)*rate of curve)). Where, Y refers to the inhibition ratio (%) and X refers to the compound concentration.

The test system of assay [2] is hct116 cells (colon cancer). Briefly: Cell proliferation inhibition, hct116 (MTT). In kind it is cell-based. To be noted: Homo sapiens, HCT-116. The protocol: as §2, §3
Assay [3] has as its system A2780s cells (ovarian cancer). Description: Cell proliferation inhibition, A2780s (MTT). It is filed as cell-based. To be noted: Homo sapiens. The protocol:
as §2, §3

The mark [4] stands for this setting: Table 1, graded, read-out: HDAC1 IC50.
Setting [5] is: 96 h incubation, read-out: Proliferation IC50, Acute myeloid leukemia MV4-11.
Where [6] appears, read: read-out: IC50 to proliferation of MV4-11 cells.
[7] abbreviates: 96 h incubation, read-out: Proliferation IC50, Colon cancer hct116.
Setting [8] is: read-out: IC50 to proliferation of hct116 cells.
Where [9] appears, read: 96 h incubation, read-out: Proliferation IC50, Ovarian cancer A2780s.
The mark [10] stands for this setting: read-out: IC50 to proliferation of A2780s cells.
The mark [11] stands for this setting: read-out: inhibition value IC50 to the activity of HDAC1.

Read-outs that look alike come from different tables or passages of the source.

T1 sequence (Q13547 whole entry, species assumed): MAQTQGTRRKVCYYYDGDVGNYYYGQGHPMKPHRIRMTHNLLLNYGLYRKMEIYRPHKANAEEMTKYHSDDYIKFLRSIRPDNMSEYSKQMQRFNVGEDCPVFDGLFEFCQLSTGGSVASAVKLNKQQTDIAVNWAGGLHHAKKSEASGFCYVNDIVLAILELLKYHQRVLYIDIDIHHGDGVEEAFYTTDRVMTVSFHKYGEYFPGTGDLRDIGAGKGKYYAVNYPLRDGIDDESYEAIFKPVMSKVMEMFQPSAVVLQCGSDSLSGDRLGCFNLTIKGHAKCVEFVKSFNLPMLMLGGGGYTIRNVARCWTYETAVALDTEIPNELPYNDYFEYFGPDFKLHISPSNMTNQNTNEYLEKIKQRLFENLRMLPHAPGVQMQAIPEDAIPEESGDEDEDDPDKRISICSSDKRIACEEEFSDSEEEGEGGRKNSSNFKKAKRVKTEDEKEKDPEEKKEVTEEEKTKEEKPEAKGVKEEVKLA

`CCCCc1ccc(-c2nc(N3CCOCC3)c3nc(CN(C)c4ncc(C(=O)NO)cn4)n(C)c3n2)s1` [CLJ-21, 2-(((2-(5-n-butyl-2-thienyl)-9-methyl-6-morpholine-9H-purine-8-yl))methyl(methyl)amino)-N-hydroxyl pyrimidine-5-formamide]: the IC50 at HDAC1 (setting [4]) is < 100 nM; on PI3Kα, > 10000 nM; in assay [1] (setting [5]), 0.1 to 10 nM; in assay [1] (setting [6]), 0.1 to 10 nM; in assay [2] (setting [7]), 0.1 to 10 nM; in assay [2] (setting [8]) it was 0.1 to 10 nM. The IC50 in assay [3] (setting [9]) and in assay [3] (setting [10]) was 0.1 to 10 nM each time.
On to `CN(Cc1nc2c(N3CCOCC3)nc(-c3ccsc3)nc2n1C)c1ncc(C(=O)NO)cn1` [CLJ-22, 2-(((2-(3-thienyl)-9-methyl-6-morpholine-9H-purine-8-yl))methyl(methyl)amino)-N-hydroxyl pyrimidine-5-formamide], for which the IC50 at HDAC1 (setting [4]) is < 1 nM; at HDAC1 (setting [11]), < 1 nM; at PI3Kα, > 10000 nM; in assay [1] (setting [5]), 0.1 to 10 nM; in assay [1] (setting [6]) it was 0.1 to 10 nM; in assay [2] (setting [7]), 0.1 to 10 nM. Further, the IC50 in assay [2] (setting [8]), in assay [3] (setting [9]) and in assay [3] (setting [10]) was 0.1 to 10 nM throughout.
Take `Cc1cscc1-c1nc(N2CCOCC2)c2nc(CN(C)c3ncc(C(=O)NO)cn3)n(C)c2n1` [CLJ-23]: the IC50 at HDAC1 (setting [4]) was < 100 nM; on PI3Kα it was > 10000 nM; in assay [1] (setting [5]), 0.1 to 10 nM; in assay [1] (setting [6]), 0.1 to 10 nM; in assay [2] (setting [7]) it was 0.1 to 10 nM; in assay [2] (setting [8]), 0.1 to 10 nM. The IC50 in assay [3] (setting [9]) and in assay [3] (setting [10]) was 0.1 to 10 nM each time.
On to `CN(Cc1nc2c(N3CCOCC3)nc(-c3ccc[nH]3)nc2n1C)c1ncc(C(=O)NO)cn1` [CLJ-24, 2-(((2-(1H-2-pyrrolyl)-9-methyl-6-morpholine-9H-purine-8-yl))methyl(methyl)amino)-N-hydroxyl pyrimidine-5-formamide], for which the IC50 on HDAC1 (setting [4]) was < 1 nM; at HDAC1 (setting [11]), < 1 nM; at PI3Kα, 1000 to 10000 nM; in assay [1] (setting [5]), 0.1 to 10 nM; in assay [1] (setting [6]), 0.1 to 10 nM; in assay [2] (setting [7]) it was 0.1 to 10 nM. The IC50 in assay [2] (setting [8]), in assay [3] (setting [9]) and in assay [3] (setting [10]) was 0.1 to 10 nM throughout.
As for `CN(C)CCn1cc(-c2nc(N3CCOCC3)c3nc(CN(C)c4ncc(C(=O)NO)cn4)n(C)c3n2)cn1` [CLJ-25], the IC50 was < 100 nM on HDAC1 (setting [4]); 1000 to 10000 nM on PI3Kα; 0.1 to 10 nM in assay [1] (setting [5]); 0.1 to 10 nM in assay [1] (setting [6]); 0.1 to 10 nM in assay [2] (setting [7]); 0.1 to 10 nM in assay [2] (setting [8]). The IC50 in assay [3] (setting [9]) and in assay [3] (setting [10]) was 0.1 to 10 nM throughout.
With `CN(Cc1nc2c(N3CCOCC3)nc(-c3cccc(O)c3)nc2n1C)c1ncc(C(=O)NO)cn1` [CLJ-27, 2-(((2-(3-hydroxyphenyl)-9-methyl-6-morpholine-9H-purine-8-yl))methyl(methyl)amino)-N-hydroxyl pyrimidine-5-formamide], the IC50 on HDAC1 (setting [4]) was < 1 nM; at HDAC1 (setting [11]), < 1 nM; at PI3Kα, > 10000 nM; in assay [1] (setting [5]), 0.1 to 10 nM; in assay [2] (setting [7]) it was 10 to 100 nM; in assay [3] (setting [9]), 10 to 100 nM.
For the compound `CCn1c(CN(C)c2ncc(C(=O)NO)cn2)nc2c(N3CCOCC3)nc(-c3ccc(OC)cc3)nc21` [CLJ-30, 2-((9-ethyl-2(4-methoxyphenyl)-6-morpholino-9H-purine-8-yl)methyl)(methyl)amino-N-hydroxyl pyrimidine-5-formamide], the IC50 at HDAC1 (setting [4]) is < 100 nM; on PI3Kα it was > 10000 nM; in assay [1] (setting [5]) it was 0.1 to 10 nM; in assay [2] (setting [7]) it was 10 to 100 nM; in assay [3] (setting [9]), 10 to 100 nM.
As to `COc1ccc(-c2nc(N3CCOCC3)c3nc(CN(C)c4ncc(C(=O)NO)cn4)n(C(C)C)c3n2)cc1` [CLJ-31], the IC50 is 100 to 1000 nM on HDAC1 (setting [4]); > 10000 nM at PI3Kα; > 1000 nM in assay [1] (setting [5]); > 1000 nM in assay [2] (setting [7]); > 1000 nM in assay [3] (setting [9]).
For `COc1ccc(-c2nc(N3CCOCC3)c3nc(CN(C)c4ncc(C(=O)NO)cn4)n(C4CCCC4)c3n2)cc1` [CLJ-32, 2-(((9-cyclopentyl-2(4-methoxyphenyl)-6-morpholine-9H-purine-8-yl)methyl)(methyl)amino)-N-hydroxyl pyrimidine-5-formamide], the IC50 on HDAC1 (setting [4]) is 100 to 1000 nM; on PI3Kα, > 10000 nM; in assay [1] (setting [5]) it was > 1000 nM; in assay [2] (setting [7]), > 1000 nM; in assay [3] (setting [9]), > 1000 nM.
For the compound `COc1cc(-c2nc(N3CCOCC3)c3nc(CN(C)c4ncc(C(=O)NO)cn4)n(C)c3n2)cc(OC)c1OC` [CLJ-35, 2-(((2-(3,4,5-trimetoxyphenyl)-9-methyl-6-morpholine-9H-purine-8-yl))methyl(methyl)amino)-N-hydroxyl pyrimidine-5-formamide], the IC50 at HDAC1 (setting [4]) was < 100 nM; at PI3Kα, > 10000 nM; in assay [1] (setting [5]), 0.1 to 10 nM; in assay [2] (setting [7]) it was 10 to 100 nM; in assay [3] (setting [9]), 10 to 100 nM.
As for `CN(Cc1nc2c(N3CCOCC3)nc(-c3ccc4c(c3)OCO4)nc2n1C)c1ncc(C(=O)NO)cn1` [CLJ-36, 2-(((2-(benzo[d][1,3]dioxole-5-yl)-9-methyl-6-morpholine-9H-purine-8-yl))methyl(methyl)amino)-N-hydroxyl pyrimidine-5-formamide], the IC50 at HDAC1 (setting [4]) was < 1 nM; at HDAC1 (setting [11]), < 1 nM; at PI3Kα, > 10000 nM; in assay [1] (setting [5]), 0.1 to 10 nM; in assay [1] (setting [6]), 0.1 to 10 nM; in assay [2] (setting [7]), 0.1 to 10 nM. For the same compound, the IC50 in assay [2] (setting [8]), in assay [3] (setting [9]) and in assay [3] (setting [10]) was 0.1 to 10 nM throughout.
For the compound `COc1ccc(C(F)(F)F)cc1-c1nc(N2CCOCC2)c2nc(CN(C)c3ncc(C(=O)NO)cn3)n(C)c2n1` [CLJ-38, 2-(((2-(2-methoxy-5-trifluoromethylphenyl)-9-methyl-6-morpholine-9H-purine-8-yl))methyl(methyl)amino)-N-hydroxyl pyrimidine-5-formamide], the IC50 at HDAC1 (setting [4]) was < 100 nM; at PI3Kα, > 10000 nM; in assay [1] (setting [5]) it was 0.1 to 10 nM; in assay [1] (setting [6]), < 10 nM; in assay [2] (setting [7]), 100 to 1000 nM; in assay [2] (setting [8]) it was > 100 nM. For the same compound, the IC50 in assay [3] (setting [9]) is 10 to 100 nM.
For `CCNc1ccc(-c2nc(N3CCOCC3)c3nc(CN(C)c4ncc(C(=O)NO)cn4)n(C)c3n2)cc1` [CLJ-48], the IC50 at HDAC1 (setting [4]) was < 100 nM; on PI3Kα, > 10000 nM; in assay [1] (setting [5]), 0.1 to 10 nM; in assay [1] (setting [6]), 0.1 to 10 nM; in assay [2] (setting [7]) it was 0.1 to 10 nM; in assay [2] (setting [8]), 0.1 to 10 nM. Further, the IC50 in assay [3] (setting [9]) and in assay [3] (setting [10]) was 0.1 to 10 nM in each case.
For `CC(C)=CCN(CC=C(C)C)c1ccc(-c2nc(N3CCOCC3)c3nc(CN(C)c4ncc(C(=O)NO)cn4)n(C)c3n2)cc1` [CLJ-49], the IC50 at HDAC1 (setting [4]) is < 100 nM; on PI3Kα, > 10000 nM; in assay [1] (setting [5]), 10 to 100 nM; in assay [2] (setting [7]), 100 to 1000 nM; in assay [3] (setting [9]), 10 to 100 nM.

The values above are taken from US10227347B2, “Purinyl-N-hydroxyl pyrimidine formamide derivative, preparation methods and uses thereof” (Guizhou Bailing Group Pharmaceutical CO., LTD., priority 2015, dated 2019).
